Publication PMC8304516, “A Fungal Defensin Targets the SARS−CoV−2 Spike Receptor−Binding Domain” (Journal of Fungi, 2021)
Bridge positions count the residues as written; N and C are the ends. Peptide text beside a SMILES is read from it.

Tests used:
[1] = target: Spike RBD (SARS-CoV-2) (UniProt P0DTC2); details: cited from earlier work
[2] = target: SARS−CoV−2 Spike RBD (Severe acute respiratory syndrome coronavirus 2, UniProt P0DTC2); assay: biochemical; format: binding; details: KD; SD
[3] = target: RBD; details: binding to RBD; cited from earlier work

**Q.** Which Kd [1] does the source give for “human beta-defensin 2 (from UniProt O15263)” here?
**A.** 300 nM

**Q.** With `CC[C@H](C)[C@@H]1NC(=O)[C@H](CO)NC(=O)[C@H](CC(C)C)NC(=O)[C@@H]2CSSC[C@@H](C(=O)NCC(=O)N[C@@H](CCCCN)C(=O)N[C@@H](CCC(N)=O)C(=O)O)NC(=O)[C@H]([C@@H](C)O)NC(=O)[C@@H]3CSSC[C@H](NC(=O)[C@H](CCC(=O)O)NC(=O)[C@H](CC(N)=O)NC(=O)[C@H](CCCCN)NC(=O)[C@H](CC(N)=O)NC(=O)[C@H](Cc4ccccc4)NC(=O)[C@@H]4CCCN4C(=O)[C@@H](NC(=O)CNC(=O)[C@H](Cc4ccccc4)NC(=O)CN)CSSC[C@H](NC(=O)[C@H](Cc4ccccc4)NC(=O)CNC(=O)[C@H](Cc4ccccc4)NC(=O)[C@H](CCCCN)NC(=O)[C@H](CCCNC(=N)N)NC(=O)CNC1=O)C(=O)N[C@@H](C)C(=O)NCC(=O)N1CCC[C@H]1C(=O)N[C@@H](CC(C)C)C(=O)N[C@@H](CCCNC(=N)N)C(=O)N[C@@H](C)C(=O)N[C@@H]([C@@H](C)O)C(=O)N3)C(=O)N[C@@H](Cc1c[nH]cn1)C(=O)N[C@@H](C)C(=O)N[C@@H](Cc1c[nH]cn1)C(=O)N2` [rE8K] (H-GFGCPFNKNECHAHCLSIGRKFGFCAGPLRATCTCGKQ-OH; disulfide 4-25, 11-33, 15-35) as the compound, how does the Kd [2] read?
**A.** 1900 ± 570 nM

**Q.** With human β−defensin 2 [hBD−2] as the compound, how does the Kd [3] read?
**A.** ~300 nM
